Measured values reported in article PMC6264179, “Triterpenoids from the Roots of Sanguisorba tenuifolia var. Alba” (Molecules, 2011).

The molecules below were run against α-Glucosidase (EC.3.2.1.20) (assay: α-Glucosidase inhibition assay (p-nitrophenyl-α-D-glucopyranoside substrate, absorbance at 405 nm)). Details: in vitro; pH 6.8 phosphate buffer, 37 °C, 15 min; acarbose positive control; read-out: IC50 (mM ± SEM, mM), α-glucosidase inhibitory activity.
Assay type: biochemical
Experimental: Open column chromatography (CC) was carried out using silica gel (200-300 mesh, Qingdao Marine Chemical Co., Qingdao, China) or octadecyl silica gel (ODS, 25-40 μm, Fuji) as stationary phases. TLC employed precoated silica gel plates (5-7 μm, Qingdao Marine). Preparative HPLC was carried out on a Waters 600 instument equipped with a Waters UV-2487 detector. A Waters Sunfire prep C18 OBD (19 × 250 mm i.d.) column was used for this purpose. The IR spectra were recorded as KBr pellets on a Jasco 302-A spectrometer. Optical rotation was recorded on a Jasco P-2000 polarimeter. HRESIMS were measured on a FTMS-7 instrument (Bruker Daltonics). Melting points were determined on a Gallenkemp apparatus and are uncorrected. The ^1H-, ^13C- and 2D (^1H-^1H COSY, HSQC, HMBC, NOESY) NMR spectra were recorded on a Bruker AMX-400 spectrometer using standard pulse sequences. Chemical shifts are reported in ppm (δ), and scalar coupling are reported in Hz. GC analyses were carried out using a Fuli 9790 instrument equipped with a DM-5 column (0.25 μm, 30 m × 0.25 mm, Dikma, China). α-Glucosidase (EC.3.2.1.20) from Saccharomyces sp. was purchased from Wako Pure Chemical Indutries Ltd. (Wako 076-02841). Other reagents were purchased from various commercial sources.
α-Glucosidase (EC.3.2.1.20) enzyme inhibition assay has been performed according to the literature. α-Glucosidase (25 μL, 0.2 U/mL), various concentrations of samples (25 μL), and 67 mM phosphate buffer (pH 6.8, 175 μL) were mixed at room temperature for 10 min. Reactions were initiated by the addition of 23.2 mM p-nitrophenyl-α-D-glucopyranoside (25 μL). The reaction mixtures were incubated at 37 °C for 15 min in a final volume of 250 μL, and then 1 M Na2CO3 (50 μL) was added to the incubation solution to stop the reaction. The activities of glucosidase were detected in a 96-well plate, and the absorbance was read at 405 nm by a microplate spectrophotometer (Spectra Max, Molecular Devices, USA). The negative control was prepared by adding phosphate buffer instead of the sample in the same way as the test. […] The blank was prepared by adding phosphate buffer instead of α-glucosidase using the same method. The inhibition rates (%) were calculated from the following formula:
[(ODnegative control− ODblank) − (ODtest− ODtest blank)] / ([…]− ODblank) × 100%

IC50 | SMILES
1.88 ± 0.28 mM | CC1(C)CCC2(C(=O)OC3OC(CO)C(O)C(O)C3O)CCC3(C)C(=CCC4C5(C)CC(=O)C(O)C(C)(C)C5CCC43C)C2C1O [Compound 1, 2-oxo-3β,19α-dihydroxyolean-12-en-28-oic acid β-D-gluco-pyranosyl ester]
1.35 ± 0.04 mM | C[C@@H]1CC[C@]2(C(=O)O)CC[C@]3(C)C(=CCC4[C@@]5(C)CC(=O)[C@H](O)C(C)(C)C5CC[C@]43C)C2[C@@]1(C)O (some centres unmarked) [Compound 2, 2-oxopomolic acid]
2.22 ± 0.06 mM | C[C@@H]1CC[C@]2(C(=O)O[C@@H]3O[C@H](CO)[C@@H](O)[C@H](O)[C@H]3O)CC[C@]3(C)C(=CCC4[C@@]5(C)CC(=O)[C@H](O)C(C)(C)C5CC[C@]43C)C2[C@@]1(C)O (stereo partly drawn) [Compound 3, 2-oxopomolic acid β-D-glucopyranoside]
1.56 ± 0.04 mM | CC1CCC2(C(=O)OC3OC(CO)C(O)C(O)C3O)CCC3(C)C(=CCC4C5(C)CC(O)C(=O)C(C)(C)C5CCC43C)C2C1(C)O [Compound 4, 2α,19α-dihydroxy-3-oxo-12-ursen-28-oic acid β-D-glucopyranosyl ester]
1.23 ± 0.09 mM | C[C@@H]1CC[C@]2(C(=O)O)CC[C@]3(C)C(=CCC4[C@@]5(C)C[C@@H](O)C(=O)C(C)(C)C5CC[C@]43C)C2[C@@]1(C)O (stereo partly drawn) [Compound 5, 2α,19α-dihydroxy-3-oxo-12-ursen-28-oic acid]
2.01 ± 0.06 mM | CC1(C)C(=O)[C@H](O)C[C@@]2(C)C1CC[C@]1(C)C2CC=C2C3[C@@H](O)C(C)(C)CC[C@]3(C(=O)O[C@@H]3O[C@H](CO)[C@@H](O)[C@H](O)[C@H]3O)CC[C@]21C (stereo partly drawn) [Compound 6, 2α,19α-dihydroxy-3-oxo-olean-12-en-28-oic acid β-D-glucopyranosyl ester]
3.28 ± 0.08 mM | C[C@@H]1CC[C@]2(C(=O)O[C@@H]3O[C@H](CO)[C@@H](O)[C@H](O)[C@H]3O)CC[C@]3(C)C(=CCC4[C@@]5(C)C[C@@H](O)[C@H](O)C(C)(C)C5CC[C@]43C)C2[C@@]1(C)O (some centres unmarked) [Compound 7, rosamutin]
0.67 ± 0.09 mM | C[C@@H]1CC[C@]2(C(=O)O)CC[C@]3(C)C(=CC[C@@H]4[C@@]5(C)C[C@@H](O)[C@@H](O)C(C)(C)[C@@H]5CC[C@]43C)[C@@H]2[C@]1(C)O [Compound 8, euscaphic acid]
3.1 ± 0.24 mM | C[C@@H]1CC[C@]2(C(=O)O[C@@H]3O[C@H](CO)[C@@H](O)[C@H](O)[C@H]3O)CC[C@]3(C)C(=CCC4[C@@]5(C)C[C@@H](O)[C@@H](O)C(C)(C)C5CC[C@]43C)C2[C@@]1(C)O (some centres unmarked) [Compound 9, kaji-ichigoside Fl]
0.62 ± 0.06 mM | C[C@@H]1CC[C@]2(C(=O)O)CC[C@]3(C)C(=CCC4[C@@]5(C)CC[C@H](OC(=O)C=Cc6ccc(O)cc6)C(C)(C)C5CC[C@]43C)C2[C@@H]1C (some centres unmarked) [Compound 12, p-coumaroylursolic acid]
3.62 ± 0.21 mM | CC1CCC2(C(=O)OC3OC(CO)C(O)C(O)C3O)CCC3(C)C(=CCC4C5(C)CCC(OC6OCC(O)C(O)C6O)C(C)(C)C5CCC43C)C2C1(C)O (centres unmarked) [Compound 13, ziyu-glycoside I]
2.87 ± 0.06 mM | C=C1C(C)CCC2(C(=O)OC3OC(CO)C(O)C(O)C3O)CCC3(C)C(=CCC4C5(C)CCC(OC6OCC(O)C(O)C6O)C(C)(C)C5CCC43C)C12 [Compound 14, 3β-[(α-L-arabinopyranosyl)oxy] urs-12,19(29)-dien-28-oic acid 28-β-D-glucopyranosyl ester]
1.84 ± 0.12 mM | C[C@@H]1CC[C@]2(C(=O)O)CC[C@]3(C)C(=CC[C@@H]4[C@@]5(C)CC[C@H](O)C(C)(C)[C@@H]5CC[C@]43C)[C@@H]2[C@]1(C)O [Compound 15, pomolic acid]

SMILES | IC50
CC1(C)CC[C@]2(C(=O)O[C@@H]3O[C@H](CO)[C@@H](O)[C@H](O)[C@H]3O)CC[C@]3(C)C(=CCC4[C@@]5(C)C[C@@H](O)[C@H](O)C(C)(C)C5CC[C@]43C)C2[C@H]1O (some centres unmarked) [Compound 10, 24-deoxysericoside] | 3.52 ± 0.16 mM
